Laboratory results published in patent publication US8053476B2, “Method for treating peripheral neuropathic pain” (UCB Pharma GmbH, priority 2001, dated 2011).

Experiments:
[1] = test system: rat; experiment: Formalin test, rat: prolonged inflammatory pain (weighted pain score); format: in vivo; conditions: i.p. just prior to formalin injection, 5-40 mg/kg
Method: The formalin test is a chemically-induced tonic pain model in which biphasic changes of nociceptive behaviour are assessed and spinal/supraspinal plasticity of nociception is considered as a molecular basis for neuropathic pain particularly during the second (=late) phase of the test, during which most clinically used drugs against neuropathic pain are active.
The compound was tested for anti-nociceptive properties by use of the weighted behavioural scoring method: Freely moving animals underwent observational assessment of the position of the left hind paw according to a rating score scaled 0-3 before and 10, 20, 30 and 40 min after injection of 0.05 ml of sterile 2.5% formalin under the skin on the dorsal surface of the paw.

[2] = test system: rat; experiment: Chronic constriction injury (CCI, Bennett-model), mechanical allodynia (Von Frey pressure algometer); format: in vivo; conditions: for Pressure to elicit foot withdrawal, Post-operative + SPM 927: ligated hind paw, ±SEM
Method: (§1) The effectiveness of SPM 927 in reducing spontaneous chronic pain, mechanical allodynia, and thermal hyperalgesia was tested using the chronic constriction injury (CCI) model of peripheral neuropathy, one of the best characterised in vivo animal models used to study chronic pain due to peripheral nerve injury. In this model, loose ligatures are placed around the sciatic nerve, which produces axonal swelling and a partial deafferentation manifested as a significant but incomplete loss of axons in the distal portion of the peripheral nerve. One of the prominent behaviours seen following sciatic nerve ligation is the appearance of hind paw guarding, thought to be an indication of an ongoing spontaneous chronic pain. Support for this idea is derived from reports of increased spinal cord neural activity, and increased spontaneous neuronal discharge in spinothalamic tract neurons and in the ventrobasal thalamus in the absence of overt peripheral stimulation. In addition to the appearance of spontaneous pain behaviours, several abnormalities in stimulus evoked pain occur as a result of CCI, including thermal hyperalgesia and mechanical allodynia. The development of these abnormal stimulus-evoked pains has also been reported as occurring in areas outside the territory of the damaged nerve, areas innervated by uninjured nerves.
Behavioural tests for thermal hyperalgesia, and mechanical allodynia were conducted to evaluate different components of neuropathic pain. Baseline data for each test was collected prior to any experimental procedure; in addition, all animals were tested for the development of chronic pain behaviours 13-25 days after CCI surgery 1 day prior to the day of vehicle (0.04 ml sterile water/10 g body weight) or drug administration and after vehicle or drug administration. […]
Mechanical sensitivity and allodynia of the ligated rat hind paw was quantified by brisk foot withdrawal in response to normally innocuous mechanical stimuli as described previously. […]

[3] = test system: female Wistar rats; experiment: Freund's complete adjuvant arthritis model, paw pressure test (Randall Selitto), vocalisation; format: in vivo, rat
Method: Experiments were performed in female Wistar rats weighing 80-90 g at the beginning of the experiments. Arthritis was induced by intraplantar injection of Freund's complete adjuvant (FCA, 0.1 ml) to one hindpaw. Drugs were given on day 11 after FCA injection in animals which developed systemic secondary arthritic symptoms as assessed by visual inspection. Mechanical hyperalgesia was than acutely applied and measured by means of the paw pressure test (Randall Selitto method) and supraspinal vocalisation as the biological endpoint of the nociceptive reaction. Measurements were taken at 0 min (before drug injection) and 15 min, 30 min, 60 min, and 24 h after drug injection and all data are expressed as percent of maximal possible effect (% MPE).
10 groups of 15 rats were used and received the following treatments: […]

[4] = test system: rat; experiment: Randall-Selitto paw pressure test, carrageenan induced acute inflammation; format: in vivo; conditions: for Mechanical nociceptive threshold pressure, Carrageenan + SPM 927: ±SEM, n=12
Method: Further potential anti-nociceptive efficacy of SPM 927 was assessed in a rat experimental model of acute inflammation using a modified Randall and Selitto procedure. Acute inflammation is induced by injection of s.c. carrageenan (1.0 mg in 0.1 ml saline/paw), an unspecific inflammatory agent, into the plantar surface of one hind paw of the animal. Mechanical sensitivity and nociceptive thresholds were measured using an algesimeter device that exerts a constantly increasing mechanical force (10 mm Hg/sec) on the inflammed hind paw. The mechanical nociceptive threshold is defined as the pressure (mm Hg) at which the rat vocalises or struggles or withdraws its paw. Since its original description, the Randall and Selitto mechanical paw pressure test has become a standard method for testing the efficacy of new compounds for alleviating acute inflammatory pain.
SPM 927 or vehicle (sterile water, 0.04 […]) was administered i.p. 1 hr and 45 minutes after carrageenan, meaning 15 to 20 minutes before the start of behavioural testing. As compared to the response threshold of vehicle-treated controls, an increase in the pressure required to produce a behavioural response is interpreted as antinociception.

[5] = test system: rat; experiment: Chronic constriction injury (CCI, Bennett-model), thermal hyperalgesia (Hargreaves); format: in vivo; conditions: for Withdrawal latency, Post-operative + SPM 927: ligated hind paw, radiant heat, ±SEM
Method: as §1
Behavioural tests for thermal hyperalgesia, and mechanical allodynia were conducted to evaluate different components of neuropathic pain. Baseline data for each test was collected prior to any experimental procedure; in addition, all animals were tested for the development of chronic pain behaviours 13-25 days after CCI surgery 1 day prior to the day of vehicle (0.04 ml sterile water/10 g body weight) or drug administration and after vehicle or drug administration. The sequence of the pain-related behaviour tests was (1) thermal hyperalgesia, (2) mechanical allodynia in order to minimise the influence of one test on the result of the next. The testing procedures and results are presented separately for each aspect of chronic pain. Either 0 (vehicle, 0.04 ml/10 g body weight), 5, 10, 20 or 40 mg/kg of SPM 927 (n=7-23/group) was administered i.p. 15 minutes before the first behavioural test.
(1) Thermal hyperalgesia was assessed by means of withdrawal latency in response to radiant heat applied to the subplantar surface of the ligated rat hind paw according to Hargreaves. As compared to the baseline latency (s), a significant decrease in the (postoperative) latency of foot withdrawal in response to the thermal stimulus was interpreted as indicating the presence of thermal hyperalgesia following chronic constriction injury.

COC[C@@H](NC(C)=O)C(=O)NCc1ccccc1 [SPM 927, (R)-2-acetamide-N-benzyl-3-methoxypropionamide]
Effect on formalin-induced nociceptive behaviour [1]: dose dependent reduction of the formalin-induced tonic inflammatory nociceptive behaviour | Pressure to elicit foot withdrawal, Post-operative + SPM 927 ([2]; 20 mg/kg i.p.): 39.5 ± 3.62 g/mm^2 | Pressure to elicit foot withdrawal, Post-operative + SPM 927 ([2]; 40 mg/kg i.p.): 42.9 ± 5.47 g/mm^2 | Effect on mechanical allodynia induced by unilateral nerve ligation ([2]; i.p., 5-40 mg/kg): dose dependently reduced the intensity of mechanical allodynia | Anti-inflammatory effect in FCA arthritis ([3]; 30 mg/kg early (with FCA)): no anti-inflammatory effects | Anti-nociceptive effect in FCA arthritis ([3]; 5-40 mg/kg acute, significant at 30 and 40 mg/kg): dose-dependent anti-nociceptive | % MPE ([3]; FCA rats, 5 mg/kg acute (day 11), 15 min): −5 % MPE | % MPE ([3]; FCA rats, 5 mg/kg acute (day 11), 30 min): −5 % MPE | % MPE ([3]; FCA rats, 5 mg/kg acute (day 11), 60 min): −12 % MPE | % MPE ([3]; FCA rats, 5 mg/kg acute (day 11), 24 h): −14 % MPE | % MPE ([3]; FCA rats, 10 mg/kg acute (day 11), 15 min): +7 % MPE | % MPE ([3]; FCA rats, 10 mg/kg acute (day 11), 30 min): −2 % MPE | % MPE ([3]; FCA rats, 10 mg/kg acute (day 11), 60 min): 0 % MPE | % MPE ([3]; FCA rats, 10 mg/kg acute (day 11), 24 h): −5 % MPE | % MPE ([3]; FCA rats, 20 mg/kg acute (day 11), 15 min): +1 % MPE | % MPE ([3]; FCA rats, 20 mg/kg acute (day 11), 30 min): −20 % MPE | % MPE ([3]; FCA rats, 20 mg/kg acute (day 11), 60 min): −9 % MPE | % MPE ([3]; FCA rats, 20 mg/kg acute (day 11), 24 h): −20 % MPE | % MPE ([3]; FCA rats, 30 mg/kg acute (day 11), 15 min): +58 % MPE | % MPE ([3]; FCA rats, 30 mg/kg acute (day 11), 30 min): +33 % MPE | % MPE ([3]; FCA rats, 30 mg/kg acute (day 11), 60 min): +16 % MPE | % MPE ([3]; FCA rats, 30 mg/kg acute (day 11), 24 h): −8 % MPE | % MPE ([3]; FCA rats, 30 mg/kg early (with FCA), anti-inflammatory effects group, 15 min): −14 % MPE | % MPE ([3]; FCA rats, 30 mg/kg early (with FCA), anti-inflammatory effects group, 30 min): −7 % MPE | % MPE ([3]; FCA rats, 30 mg/kg early (with FCA), anti-inflammatory effects group, 60 min): −3 % MPE | % MPE ([3]; FCA rats, 30 mg/kg early (with FCA), anti-inflammatory effects group, 24 h): −11 % MPE | % MPE ([3]; FCA rats, 40 mg/kg acute (day 11), 15 min): +100 % MPE | % MPE ([3]; FCA rats, 40 mg/kg acute (day 11), 30 min): +100 % MPE | % MPE ([3]; FCA rats, 40 mg/kg acute (day 11), 60 min): +14 % MPE | % MPE ([3]; FCA rats, 40 mg/kg acute (day 11), 24 h): −7 % MPE | Dose at which anti-nociceptive effects started ([3]; FCA rats, most prominent during first 30 min): 30 mg/kg | Mechanical nociceptive threshold pressure, Carrageenan + SPM 927 ([4]; 20 mg/kg i.p. 1 hr 45 min after carrageenan): 164.8 ± 13.5 mm Hg | Mechanical nociceptive threshold pressure, Carrageenan + SPM 927 ([4]; 40 mg/kg i.p. 1 hr 45 min after carrageenan): 232.7 ± 22.0 mm Hg | Effect on carrageenan induced mechanical hyperalgesia ([4]; 20 and 40 mg/kg i.p.): markedly reduced the mechanical hyperalgesia induced by carrageenan | Withdrawal latency, Post-operative + SPM 927 ([5]; 5 mg/kg i.p.): 9.1 ± 0.97 s | Withdrawal latency, Post-operative + SPM 927 ([5]; 10 mg/kg i.p.): 8.0 ± 0.58 s | Dose at which maximum effect on thermal hyperalgesia was seen ([5]; i.p.): 20 mg/kg | Effect on CCI-induced thermal hyperalgesia ([5]; i.p., significant only at 20 and 40 mg/kg): dose dependently reduced chronic constriction injury-induced thermal hyperalgesia

CN1CC[C@]23c4c5ccc(O)c4O[C@H]2[C@@H](O)C=C[C@H]3[C@H]1C5 [morphine, reference compound]
Antinociceptive effect of positive control ([3]; 10 mg/kg, arthritic and normal animals): clear antinociceptive effects in arthritic and normal animals | % MPE ([3]; FCA rats (disease condition), 10 mg/kg, 15 min): +100 % MPE | % MPE ([3]; FCA rats (disease condition), 10 mg/kg, 30 min): +100 % MPE | % MPE ([3]; FCA rats (disease condition), 10 mg/kg, 60 min): +100 % MPE | % MPE ([3]; FCA rats (disease condition), 10 mg/kg, 24 h): −7 % MPE | % MPE ([3]; no FCA (normal condition), 10 mg/kg, 15 min): +100 % MPE | % MPE ([3]; no FCA (normal condition), 10 mg/kg, 30 min): +100 % MPE | % MPE ([3]; no FCA (normal condition), 10 mg/kg, 60 min): +100 % MPE | % MPE ([3]; no FCA (normal condition), 10 mg/kg, 24 h): +2 % MPE
